The record followed here is US6855843B2, “Inhibitors of α4 mediated cell adhesion” (Tanabe Seiyaku Co., Ltd., priority 1998, dated 2005).

Where only a bound is given, the exact number is not on record here.

As a reminder, the IC50 is the concentration at which inhibition is half-maximal.

In this assay the target is T1, α4β7 (adhesion of RPMI cells to CS-1) (Homo sapiens, UniProt P13612+P26010).
T1 construct: endogenous in cells
T1 sequence (P13612 34-1032): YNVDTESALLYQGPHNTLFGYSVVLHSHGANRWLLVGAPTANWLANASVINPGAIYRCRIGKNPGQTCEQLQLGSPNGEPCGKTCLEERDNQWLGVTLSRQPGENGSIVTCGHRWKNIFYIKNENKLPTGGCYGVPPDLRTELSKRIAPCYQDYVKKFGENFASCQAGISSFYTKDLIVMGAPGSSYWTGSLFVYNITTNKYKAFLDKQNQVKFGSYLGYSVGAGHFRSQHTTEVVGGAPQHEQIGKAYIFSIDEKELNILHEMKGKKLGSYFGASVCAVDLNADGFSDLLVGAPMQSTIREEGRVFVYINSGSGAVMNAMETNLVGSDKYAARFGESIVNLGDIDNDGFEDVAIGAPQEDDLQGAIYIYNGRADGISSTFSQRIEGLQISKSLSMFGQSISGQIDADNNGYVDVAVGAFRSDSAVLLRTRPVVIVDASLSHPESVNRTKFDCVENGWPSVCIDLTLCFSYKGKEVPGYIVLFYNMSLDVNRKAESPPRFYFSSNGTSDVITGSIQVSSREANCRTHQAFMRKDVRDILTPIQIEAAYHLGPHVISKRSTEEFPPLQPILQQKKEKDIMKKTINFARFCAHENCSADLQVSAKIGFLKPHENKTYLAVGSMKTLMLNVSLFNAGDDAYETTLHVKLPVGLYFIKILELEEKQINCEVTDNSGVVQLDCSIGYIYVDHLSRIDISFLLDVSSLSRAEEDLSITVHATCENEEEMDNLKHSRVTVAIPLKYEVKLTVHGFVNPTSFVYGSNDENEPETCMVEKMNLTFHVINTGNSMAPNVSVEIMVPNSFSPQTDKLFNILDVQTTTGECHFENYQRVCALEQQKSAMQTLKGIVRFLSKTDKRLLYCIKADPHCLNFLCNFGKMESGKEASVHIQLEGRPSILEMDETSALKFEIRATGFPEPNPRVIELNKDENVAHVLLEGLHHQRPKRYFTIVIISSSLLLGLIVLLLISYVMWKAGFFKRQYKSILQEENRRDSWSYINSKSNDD
T1 sequence (P26010 20-798): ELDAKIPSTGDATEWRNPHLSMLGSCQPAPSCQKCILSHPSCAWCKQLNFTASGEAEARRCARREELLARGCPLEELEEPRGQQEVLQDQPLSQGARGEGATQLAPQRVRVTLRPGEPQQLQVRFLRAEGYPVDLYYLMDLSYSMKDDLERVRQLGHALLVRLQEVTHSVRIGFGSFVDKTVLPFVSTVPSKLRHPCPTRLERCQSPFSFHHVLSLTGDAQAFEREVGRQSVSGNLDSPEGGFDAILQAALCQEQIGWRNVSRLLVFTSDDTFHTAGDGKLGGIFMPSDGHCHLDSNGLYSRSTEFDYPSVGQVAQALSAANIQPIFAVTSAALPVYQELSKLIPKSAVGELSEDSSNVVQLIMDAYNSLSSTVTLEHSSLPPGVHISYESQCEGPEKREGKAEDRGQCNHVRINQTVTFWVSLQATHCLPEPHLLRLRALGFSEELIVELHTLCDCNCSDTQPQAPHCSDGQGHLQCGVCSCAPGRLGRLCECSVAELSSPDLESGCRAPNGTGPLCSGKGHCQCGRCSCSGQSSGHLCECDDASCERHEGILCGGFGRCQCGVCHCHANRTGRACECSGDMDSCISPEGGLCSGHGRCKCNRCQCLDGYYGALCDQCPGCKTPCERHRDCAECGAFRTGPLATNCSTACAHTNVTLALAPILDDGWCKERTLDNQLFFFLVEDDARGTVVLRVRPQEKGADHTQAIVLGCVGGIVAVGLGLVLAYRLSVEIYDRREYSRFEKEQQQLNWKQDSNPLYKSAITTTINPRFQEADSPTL
The experiment in a line: RPMI-CS-1 cell adhesion assay. The assay is classed as cell-based. The note with it: adhesion of RPMI B-cell line (expresses α4β7) to CS-1 peptide coated microwells; read-out: RPMI-CS-1 IC50 value range.
With `COc1cccc(OC)c1-c1ccc(C[C@H](NC(=O)c2c(Cl)cccc2Cl)C(=O)OC(C)C)cc1` [Example 275, N-(2,6-Dichlorobenzoyl)-4-(2,6-dimethoxyphenyl)-L-phenylalanine i-propyl ester], the IC50 was greater than 5000 nM.

Consider `COc1cc(CN2CCCCC2)cc(OC)c1-c1ccc(C[C@H](NC(=O)c2c(Cl)cccc2Cl)C(=O)O)cc1` [Example 256, N-(2,6-Dichlorobenzoyl)-4-[2,6-dimethoxy-4-(piperidinomethyl)phenyl]-L-phenylalanine], for which the IC50 is less than 300 nM.

Consider `CS(=O)(=O)Nc1ccccc1-c1ccc(C[C@H](NC(=O)c2c(Cl)cccc2Cl)C(=O)O)cc1` [Example 24, N-(2,6-Dichlorobenzoyl)-4-[2-(methanesulfonylamino)phenyl]-L-phenylalanine], for which the IC50 is less than 300 nM.

For the compound `COc1ccccc1-c1ccc(C[C@H](NC(=O)c2ccc(CC(C)C)cc2)C(=O)O)cc1` [Example 102], the half-maximal inhibitory concentration (IC50) was greater than 5000 nM.

`COc1ccccc1-c1ccc(C[C@H](NC(=O)c2c(Cl)cccc2Cl)C(=O)O)cc1NC(C)=O` [Example 80]: the IC50 was less than 300 nM.

As for `CCOC(=O)Nc1cc(C[C@H](NC(=O)c2c(Cl)cccc2Cl)C(=O)O)ccc1-c1ccccc1OC` [Example 345], the concentration for half-maximal inhibition (IC50) fell in the range of 300 to 1000 nM.

Turning to `COc1cc(OC)c(-c2ccc(C[C@H](NC(=O)c3c(Cl)cccc3Cl)C(=O)O)cc2)c(OC)c1` [Example 11, N-(2,6-Dichlorobenzoyl)-4-(2,4,6-trimethoxyphenyl)-L-phenylalanine], the IC50 is less than 300 nM.

For the compound `COc1ccccc1-c1ccc(C[C@H](NC(=O)c2ccccc2Br)C(=O)O)cc1` [Example 96], the IC50 fell in the range of 300 to 1000 nM.

On to `COC(=O)Nc1ccccc1-c1ccc(C[C@H](NC(=O)c2c(Cl)cccc2Cl)C(=O)O)cc1` [Example 26, N-(2,6-Dichlorobenzoyl)-4-[2-(methoxycarbonylamino)phenyl]-L-phenylalanine], for which the IC50 lay within 300 to 1000 nM.

For `NS(=O)(=O)c1ccccc1-c1ccc(C[C@H](NC(=O)c2c(Cl)cccc2Cl)C(=O)O)cc1` [Example 17, N-(2,6-Dichlorobenzoyl)-4-(2-sulfamoylphenyl)-L-phenylalanine], the 50% inhibitory concentration (IC50) is less than 300 nM.

Regarding `COc1ccccc1-c1ccc(C[C@H](NC(=O)c2cc(NS(=O)(=O)C(F)(F)F)ccc2Cl)C(=O)O)cc1` [Example 180, N-[2-Chloro-5-[(trifluoromethanesulfonyl)amino]-benzoyl]-4-(2-methoxyphenyl)-L-phenylalanine], the IC50 was less than 300 nM.

Take `COc1cccc(OC(C)C)c1-c1ccc(C[C@H](NC(=O)c2c(Cl)cccc2Cl)C(=O)O)cc1` [Example 226, N-(2,6-Dichlorobenzoyl)-4-(2-i-propyloxy-6-methoxyphenyl)-L-phenylalanine]: the 50% inhibitory concentration (IC50) was less than 300 nM.

As for `COc1cccc(OC)c1-c1ccc(C[C@H](NC(=O)c2c(Cl)cccc2Cl)C(=O)OCc2ccncc2)cc1` [Example 274, N-(2,6-Dichlorobenzoyl)-4-(2,6-dimethoxyphenyl)-L-phenylalanine 4-pyridylmethyl ester], the IC50 lay in the range of 1000 to 5000 nM.

Consider `COc1ccccc1-c1ccc(C[C@H](NC(=O)c2ccc([N+](=O)[O-])cc2Cl)C(=O)O)cc1` [Example 62, N-(2-Chloro-4-nitrobenzoyl)-4-(2-methoxyphenyl)-L-phenylalanine], for which the IC50 is less than 300 nM.

With `Cc1ncc(COc2ccccc2-c2ccc(C[C@H](NC(=O)c3c(Cl)cccc3Cl)C(=O)O)cc2)s1` [Example 42], the half-inhibitory concentration (IC50) lay within 300 to 1000 nM.

With `COc1cccc(OC)c1-c1ccc(C[C@H](NC(=O)c2c(Cl)cc(-c3ccn[nH]3)cc2Cl)C(=O)O)cc1` [Example 304, N-[4-(5-Pyrazolyl)-2,6-dichlorobenzoyl)-4-(2,6-dimethoxyphenyl)-L-phenylalanine], the concentration for half-maximal inhibition (IC50) was less than 300 nM.

With `O=C(N[C@@H](Cc1ccc(-c2ccccn2)cc1)C(=O)O)c1c(Cl)cccc1Cl` [Example 137], the half-maximal inhibitory concentration (IC50) lay within 300 to 1000 nM.

Regarding `O=C(O)c1ccccc1-c1ccc(C[C@H](NC(=O)c2c(Cl)cccc2Cl)C(=O)O)cc1` [Example 52, N-(2,6-Dichlorobenzoyl)-4-(2-carboxyphenyl)-L-phenylalanine], the concentration for half-maximal inhibition (IC50) was greater than 5000 nM.

For `COc1ccccc1-c1ccc(C[C@H](NC(=O)c2cnccn2)C(=O)O)cc1` [Example 103], the IC50 is greater than 5000 nM.

Consider `O=C(N[C@@H](Cc1ccc(-c2cccs2)cc1)C(=O)O)c1c(Cl)cccc1Cl` [Example 4B, N-(2,6-Dichlorobenzoyl)-4-(2-thienyl)-L-phenylalanine], for which the IC50 was 300 to 1000 nM.

In the case of `COC(=O)[C@H](Cc1ccc(-c2c(OC)cccc2OC)cc1)NC(=O)c1c(Cl)cccc1Cl` [Example 7A, N-(2,6-Dichlorobenzoyl)-4-(2,6-dimethoxyphenyl)-L-phenylalanine methyl ester], the half-inhibitory concentration (IC50) was less than 300 nM.

In the case of `COc1cc(CN2CCN(Cc3ccccc3)CC2)cc(OC)c1-c1ccc(C[C@H](NC(=O)c2c(Cl)cccc2Cl)C(=O)O)cc1` [Example 258, N-(2,6-Dichlorobenzoyl)-4-[2,6-dimethoxy-4-[(4-benzyl-1-piperazinyl)methyl]phenyl]-L-phenylalanine], the IC50 was less than 300 nM.

On to `C=CCOc1cc(OC)c(-c2ccc(C[C@H](NC(=O)c3c(Cl)cccc3Cl)C(=O)O)cc2)c(OC)c1` [Example 347], for which the half-maximal inhibitory concentration (IC50) is less than 300 nM.

As for “N-(2,6-Dichlorobenzoyl)-4-(2,6-dicyanophenyl)-L-phenylalanine [Example 151]”, the IC50 is less than 300 nM.

With `CC(C)COc1ccccc1-c1ccc(C[C@H](NC(=O)c2c(Cl)cccc2Cl)C(=O)O)cc1` [Example 35], the concentration for half-maximal inhibition (IC50) lay within 1000 to 5000 nM.

Take “N-(2,6-Dichlorobenzoyl)-4-(2,6-dimethoxyphenyl)-L-phenylalanine 2-(dimethylamino)ethyl ester [Example 271]”: the IC50 was less than 300 nM.

`COc1cccc(OC)c1-c1ccc(C[C@H](NC(=O)c2c(Cl)cccc2Cl)C(=O)NS(C)(=O)=O)cc1` [Example 267, N-(2,6-Dichlorobenzoyl)-4-(2,6-dimethoxyphenyl)-L-phenylalanine N-(methylsulfonyl)amide]: the concentration for half-maximal inhibition (IC50) is greater than 5000 nM.

On to `COc1ccc(-c2ccc(C[C@H](NC(=O)c3c(Cl)cccc3Cl)C(=O)O)cc2)c(OC)c1` [Example 9, N-(2,6-Dichlorobenzoyl)-4-(2,4-dimethoxyphenyl)-L-phenylalanine], for which the IC50 is less than 300 nM.

With `COc1cccc(OC)c1-c1ccc(C[C@H](NC(=O)c2c(Cl)cccc2Cl)C(=O)OCc2cccnc2)cc1` [Example 273, N-(2,6-Dichlorobenzoyl)-4-(2,6-dimethoxyphenyl)-L-phenylalanine 3-pyridylmethyl ester], the IC50 was 1000 to 5000 nM.

As for `COc1ccccc1-c1ccc(C[C@H](NC(=O)c2ccccc2C(F)(F)F)C(=O)O)cc1` [Example 88], the half-maximal inhibitory concentration (IC50) lay in the range of 1000 to 5000 nM.

For `O=C(N[C@@H](Cc1ccc(-c2c(F)cccc2F)cc1)C(=O)O)c1c(Cl)cccc1Cl` [Example 135, N-(2,6-Dichlorobenzoyl)-4-(2,6-difluorophenyl)-L-phenylalanine], the IC50 is less than 300 nM.

On to `COc1cc(CN2CCN(CCO)CC2)cc(OC)c1-c1ccc(C[C@H](NC(=O)c2c(Cl)cccc2Cl)C(=O)O)cc1` [Example 250], for which the 50% inhibitory concentration (IC50) was less than 300 nM.

Take `CS(=O)(=O)Nc1cccc(-c2ccc(C[C@H](NC(=O)c3c(Cl)cccc3Cl)C(=O)O)cc2)c1` [Example 123]: the IC50 lay within 1000 to 5000 nM.

For `O=C(N[C@@H](Cc1ccc(-c2cc3ccccc3o2)cc1)C(=O)O)c1c(Cl)cccc1Cl` [Example 130], the IC50 was greater than 5000 nM.
